Values after ≈ are worked out from the molar mass of the structure shown. Values joined by “and” are separate entries in the source; they are usually repeats but may differ in a detail not shown here. Equal entries are not always repeated.

Assay [1] relates to Candida albicans A9540. The experiment in a line: Intravenous Candida albicans infection mouse model, Table 2 part B. It counts as in vivo, mice. The conditions noted are these: at 1 and 3.5 hrs after infection and twice on the following day, 21 days after fungal challenge, method of Spearman-Karber, male ICR mice. On the procedure: Several compounds were also evaluated in an intravenous Candida albicans […] infection mouse model. The test organism was suspended in saline approximately 10 times the median lethal dose of the fungus (10⁶ cells/mouse) were used to infect intravenously male ICR mice weighing 20 to 24 g. Groups of five mice at each dose level were given the test compounds intravenously or intramuscularly. The 50% protective dose (PD₅₀) was calculated from survival rates recorded 20 or 21 days after the fungal challenge. […]

In assay [2] the test system is Candida albicans A9540. The experiment in a line: Intravenous Candida albicans infection mouse model, Table 2 part A. The class given is in vivo. Particulars: drug administered once just after infection, 20 days after fungal challenge, method of Litchfield and Wilcoxon, male ICR mice. As for the experimental part: Several compounds were also evaluated in an intravenous Candida albicans […] infection mouse model. The test organism was suspended in saline approximately 10 times the median lethal dose of the fungus (10⁶ cells/mouse) were used to infect intravenously male ICR mice weighing 20 to 24 g. Groups of five mice at each dose level were given the test compounds intravenously or intramuscularly. The 50% protective dose (PD₅₀) was calculated from survival rates recorded 20 or 21 days after the fungal challenge. Control animals died between 7 to 15 days.

Another assay concerns Mucor spinosus IFO5317. The experiment in a line: In vitro antifungal activity, serial agar dilution method (Table 1). Particulars: Sabouraud dextrose agar (pH 7.0), 28°C for 40 hours. The class given is cell-based. On the procedure: (§1) The inoculum size was adjusted to 10⁶ cells/ml, and a volume of approximately 0.003 ml of fungal suspension was applied to the surface of the antibiotic containing agar plates with a multiinoculator. After incubation, the lowest concentration of antibiotic causing virtually complete inhibition of fungal growth was determined as the minimum inhibitory concentration (MIC). Table 1. [table]

Assay [3] deals with Blastomyces dermatidis D40. Described as above. The class given is cell-based. The conditions noted are these: Blastomyces, D40; Sabouraud dextrose agar (pH 7.0); 28°C for 40 hours; read-out: MIC, Blastomyces dermatidis D40. As for the experimental part:
as §1

Assay [4] deals with Trichophyton mentagrophytes D155. The assay is described as above. The class given is cell-based. The conditions noted are these: Trichophyton mentagrophytes, D155; Sabouraud dextrose agar (pH 7.0); 28°C for 40 hours. On the procedure:
as §1

A further assay deals with Candida albicans IAM4888. Described as above. The class given is cell-based. The conditions noted are these: Candida albicans, IAM4888; Sabouraud dextrose agar (pH 7.0); 28°C for 40 hours. As for the experimental part: as §1

Take `CN[C@@H]1[C@H](O[C@@H]2OC[C@@H](O)[C@H](O)[C@H]2O)[C@@H](O)[C@H](O[C@H]2c3cc(C)c(C(=O)N[C@H](C)C(=O)O)c(O)c3-c3c(cc4c(c3O)C(=O)c3cc(OC)cc(O)c3C4=O)[C@@H]2O)O[C@@H]1C` [Pradimicin A, reference compound]: the PD₅₀ is 8.2 mg/kg in the assay on Candida albicans A9540 [1] (Part B: route IM); 30 mg/kg in the assay on Candida albicans A9540 [1] (Part B: route IV); 11 mg/kg and 7.9 mg/kg in the assay on Candida albicans A9540 [2]. Moreover, the MIC (usually the lowest concentration that inhibits growth of the organism) in the assay with Mucor spinosus IFO5317 (Mucor spinosus, IFO5317) was above 100 µg/mL; in assay [3], 3.1 µg/mL (≈ 3.69 µM); in assay [4] it was 6.3 µg/mL (≈ 7.49 µM); in the assay with Candida albicans IAM4888, 6.3 µg/mL (≈ 7.49 µM). Further, the “Partial Inhibition, Mucor spinosus IFO5317” value in the assay with Mucor spinosus IFO5317 (value in parentheses = Partial Inhibition) worked out at 12.5 µg/mL.

Source of the values: patent EP0428132A1, “Pradimicin derivatives” (Bristol-Myers Squibb Company, priority 1989, dated 1991).
